The results in this text go back to the NIST ThermoML archive (doi:10.1021/je0604380).

The conditions of this data set: Liquid; for Critical pressure: pulse heating; for Critical temperature: pulse-heating method.

± gives the expanded uncertainty stated by the source.

In the case of `OCCc1ccccc1` [2-phenylethanol], the Critical pressure worked out at 3850 ± 240 kPa and the Critical temperature is 720 ± 14 K.
The like results for `OCCCc1ccccc1` [3-phenyl-1-propanol] were, in that order, 3460 ± 200 kPa and 732 ± 14 K.
Take `OCCCCc1ccccc1` [4-phenyl-1-butanol]: the Critical pressure amounted to 3070 ± 180 kPa and the Critical temperature is on record as 746 ± 14 K.
The like results for `Oc1ccccc1` [phenol] were, in that order, 5670 ± 340 kPa and 695 ± 14 K.
